Experimental data taken from the kinase profiling compilation of Christmann-Franck et al. (2016).

Tests used:
Assay in all cases: KINOMEscan competition binding
Settings in all cases: compound 10.0 µM
[1] = target: AURKA (human) (UniProt O14965)
[2] = target: ERN1 (human) (UniProt O75460)
[3] = target: PRKACA (human) (UniProt P17612)
[4] = target: JAK1 JH1 catalytic (human) (UniProt P23458)
[5] = target: MAP3K9 (human) (UniProt P80192)
[6] = target: MYLK2 (human) (UniProt Q9H1R3)
[7] = target: PAK6 (human) (UniProt Q9NQU5)
[8] = target: PRKCQ (human) (UniProt Q04759)
[9] = tested on: MET (human), P08581 [Y1235D]
[10] = target: PRKAA2 (human) (UniProt P54646)
[11] = target: SLK (human) (UniProt Q9H2G2)
[12] = target: CSF1R (human) (UniProt P07333)
[13] = target: AURKB (human) (UniProt Q96GD4)
[14] = target: MAPK11 (human) (UniProt Q15759)
[15] = target: STK3 (human) (UniProt Q13188)
[16] = target: EPHA1 (human) (UniProt P21709)
[17] = tested on: PIK3CA (human), P42336 [I800L]
[18] = target: ULK3 (human) (UniProt Q6PHR2)
[19] = target: BMPR1A (human) (UniProt P36894)
[20] = target: SNRK (human) (UniProt Q9NRH2)
[21] = target: ROS1 (human) (UniProt P08922)
[22] = target: CAMK2B (human) (UniProt Q13554)
[23] = target: SRC (human) (UniProt P12931)
[24] = target: RIPK4 (human) (UniProt P57078)
[25] = target: BLK (human) (UniProt P51451)
[26] = tested on: CPK1 (P.falciparum)
[27] = target: FGFR1 (human) (UniProt P11362)
[28] = target: TIE1 (human) (UniProt P35590)
[29] = target: CDK8 (human) (UniProt P49336)
[30] = target: PTK2B (human) (UniProt Q14289)
[31] = target: ULK1 (human) (UniProt O75385)
[32] = target: PIP4K2B (human) (UniProt P78356)
[33] = target: MKNK1 (human) (UniProt Q9BUB5)
[34] = target: MAPK6 (human) (UniProt Q16659)
[35] = target: NEK11 (human) (UniProt Q8NG66)
[36] = tested on: LRRK2 (human), Q5S007 [G2019S]
[37] = target: RPS6KA6 KD2 (human) (UniProt Q9UK32)
[38] = target: EPHB4 (human) (UniProt P54760)
[39] = target: STK38L (human) (UniProt Q9Y2H1)
[40] = tested on: KIT (human), P10721 [D816V]
[41] = tested on: FGFR3 (human), P22607 [G697C]

Chain of EPHA1 (human) (P21709 whole entry, looked up): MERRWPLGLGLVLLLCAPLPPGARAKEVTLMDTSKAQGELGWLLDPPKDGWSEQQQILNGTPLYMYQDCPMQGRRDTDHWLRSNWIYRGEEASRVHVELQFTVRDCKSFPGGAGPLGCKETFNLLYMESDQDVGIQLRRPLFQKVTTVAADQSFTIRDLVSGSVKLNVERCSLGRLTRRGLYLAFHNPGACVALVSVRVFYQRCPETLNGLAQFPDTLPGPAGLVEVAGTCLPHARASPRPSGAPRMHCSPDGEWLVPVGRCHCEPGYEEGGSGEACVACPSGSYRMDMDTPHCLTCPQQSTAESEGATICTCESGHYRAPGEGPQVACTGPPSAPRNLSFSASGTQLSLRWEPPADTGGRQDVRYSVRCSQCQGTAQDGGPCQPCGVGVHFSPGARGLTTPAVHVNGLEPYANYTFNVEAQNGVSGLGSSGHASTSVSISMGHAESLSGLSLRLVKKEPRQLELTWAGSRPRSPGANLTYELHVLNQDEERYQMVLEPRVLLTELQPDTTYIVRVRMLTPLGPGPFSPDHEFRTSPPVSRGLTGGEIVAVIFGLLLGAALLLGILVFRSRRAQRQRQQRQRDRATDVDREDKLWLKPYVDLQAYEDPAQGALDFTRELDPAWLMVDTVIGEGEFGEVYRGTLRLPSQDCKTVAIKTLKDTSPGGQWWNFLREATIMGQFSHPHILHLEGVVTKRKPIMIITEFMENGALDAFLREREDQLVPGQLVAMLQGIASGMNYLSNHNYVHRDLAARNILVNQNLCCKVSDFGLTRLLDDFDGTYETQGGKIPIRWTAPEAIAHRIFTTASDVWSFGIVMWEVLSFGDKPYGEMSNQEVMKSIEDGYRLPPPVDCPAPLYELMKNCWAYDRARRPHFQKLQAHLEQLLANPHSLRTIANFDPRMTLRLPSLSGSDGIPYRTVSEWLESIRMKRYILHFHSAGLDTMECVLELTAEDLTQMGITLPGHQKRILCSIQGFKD
Chain of ERN1 (human) (O75460 whole entry, looked up): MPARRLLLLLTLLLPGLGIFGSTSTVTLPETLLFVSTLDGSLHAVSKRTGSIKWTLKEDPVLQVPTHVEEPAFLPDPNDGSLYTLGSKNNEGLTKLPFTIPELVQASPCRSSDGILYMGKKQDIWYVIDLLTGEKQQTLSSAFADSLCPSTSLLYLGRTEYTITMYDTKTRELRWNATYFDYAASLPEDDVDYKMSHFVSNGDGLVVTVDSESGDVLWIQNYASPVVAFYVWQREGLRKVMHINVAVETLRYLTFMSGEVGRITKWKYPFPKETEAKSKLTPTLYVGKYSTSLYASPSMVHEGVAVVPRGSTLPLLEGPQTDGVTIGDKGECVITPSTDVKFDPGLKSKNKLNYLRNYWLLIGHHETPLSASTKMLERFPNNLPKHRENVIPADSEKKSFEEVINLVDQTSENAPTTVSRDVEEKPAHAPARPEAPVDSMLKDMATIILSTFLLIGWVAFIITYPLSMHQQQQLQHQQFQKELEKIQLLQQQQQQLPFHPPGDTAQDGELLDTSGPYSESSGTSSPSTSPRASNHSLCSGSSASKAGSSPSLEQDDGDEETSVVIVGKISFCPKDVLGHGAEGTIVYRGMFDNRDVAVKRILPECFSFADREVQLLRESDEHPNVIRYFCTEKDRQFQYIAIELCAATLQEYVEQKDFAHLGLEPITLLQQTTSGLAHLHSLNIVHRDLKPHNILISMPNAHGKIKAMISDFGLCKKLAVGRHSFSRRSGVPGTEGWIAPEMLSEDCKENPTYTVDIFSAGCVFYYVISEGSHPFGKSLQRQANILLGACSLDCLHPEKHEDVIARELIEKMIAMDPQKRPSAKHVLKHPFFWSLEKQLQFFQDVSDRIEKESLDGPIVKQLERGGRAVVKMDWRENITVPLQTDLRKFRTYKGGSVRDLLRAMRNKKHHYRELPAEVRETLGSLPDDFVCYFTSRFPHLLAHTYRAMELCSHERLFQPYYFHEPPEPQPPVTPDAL
Chain of PRKCQ (human) (Q04759 whole entry, looked up): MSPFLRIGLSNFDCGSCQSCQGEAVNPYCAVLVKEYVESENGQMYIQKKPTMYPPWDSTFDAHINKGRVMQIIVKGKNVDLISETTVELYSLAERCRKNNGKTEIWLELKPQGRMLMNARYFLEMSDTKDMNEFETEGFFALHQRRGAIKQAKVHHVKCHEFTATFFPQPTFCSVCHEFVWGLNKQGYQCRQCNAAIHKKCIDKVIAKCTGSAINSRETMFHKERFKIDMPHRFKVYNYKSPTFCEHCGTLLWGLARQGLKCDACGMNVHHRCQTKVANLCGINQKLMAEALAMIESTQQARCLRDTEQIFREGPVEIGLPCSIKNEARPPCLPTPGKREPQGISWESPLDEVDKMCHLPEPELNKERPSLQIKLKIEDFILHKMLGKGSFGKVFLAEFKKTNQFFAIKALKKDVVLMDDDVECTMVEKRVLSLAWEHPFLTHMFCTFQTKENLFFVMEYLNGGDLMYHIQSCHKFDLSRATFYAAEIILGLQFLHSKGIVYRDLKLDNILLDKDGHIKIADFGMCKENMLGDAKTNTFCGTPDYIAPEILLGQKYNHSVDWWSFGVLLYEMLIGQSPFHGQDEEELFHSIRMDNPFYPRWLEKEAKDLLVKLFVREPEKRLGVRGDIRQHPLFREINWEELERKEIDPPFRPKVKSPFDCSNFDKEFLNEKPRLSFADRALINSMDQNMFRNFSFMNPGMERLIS
Chain of NEK11 (human) (Q8NG66 whole entry, looked up): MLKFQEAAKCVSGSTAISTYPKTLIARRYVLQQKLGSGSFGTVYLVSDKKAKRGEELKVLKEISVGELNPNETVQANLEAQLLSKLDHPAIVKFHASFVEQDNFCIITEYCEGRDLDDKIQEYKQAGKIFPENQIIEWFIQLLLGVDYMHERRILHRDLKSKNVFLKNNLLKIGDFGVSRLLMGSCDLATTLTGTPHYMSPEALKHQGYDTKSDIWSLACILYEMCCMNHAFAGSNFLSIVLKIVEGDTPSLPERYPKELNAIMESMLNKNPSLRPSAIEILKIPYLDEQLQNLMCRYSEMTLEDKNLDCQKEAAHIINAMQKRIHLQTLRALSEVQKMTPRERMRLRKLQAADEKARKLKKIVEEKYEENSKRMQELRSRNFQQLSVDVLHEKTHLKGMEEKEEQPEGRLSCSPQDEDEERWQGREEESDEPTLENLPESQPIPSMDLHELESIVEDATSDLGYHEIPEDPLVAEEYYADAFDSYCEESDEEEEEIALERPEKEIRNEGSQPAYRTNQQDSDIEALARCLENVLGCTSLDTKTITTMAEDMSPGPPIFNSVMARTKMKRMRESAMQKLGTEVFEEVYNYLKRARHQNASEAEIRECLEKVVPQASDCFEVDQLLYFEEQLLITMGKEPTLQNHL
Chain of PTK2B (human) (Q14289 whole entry, looked up): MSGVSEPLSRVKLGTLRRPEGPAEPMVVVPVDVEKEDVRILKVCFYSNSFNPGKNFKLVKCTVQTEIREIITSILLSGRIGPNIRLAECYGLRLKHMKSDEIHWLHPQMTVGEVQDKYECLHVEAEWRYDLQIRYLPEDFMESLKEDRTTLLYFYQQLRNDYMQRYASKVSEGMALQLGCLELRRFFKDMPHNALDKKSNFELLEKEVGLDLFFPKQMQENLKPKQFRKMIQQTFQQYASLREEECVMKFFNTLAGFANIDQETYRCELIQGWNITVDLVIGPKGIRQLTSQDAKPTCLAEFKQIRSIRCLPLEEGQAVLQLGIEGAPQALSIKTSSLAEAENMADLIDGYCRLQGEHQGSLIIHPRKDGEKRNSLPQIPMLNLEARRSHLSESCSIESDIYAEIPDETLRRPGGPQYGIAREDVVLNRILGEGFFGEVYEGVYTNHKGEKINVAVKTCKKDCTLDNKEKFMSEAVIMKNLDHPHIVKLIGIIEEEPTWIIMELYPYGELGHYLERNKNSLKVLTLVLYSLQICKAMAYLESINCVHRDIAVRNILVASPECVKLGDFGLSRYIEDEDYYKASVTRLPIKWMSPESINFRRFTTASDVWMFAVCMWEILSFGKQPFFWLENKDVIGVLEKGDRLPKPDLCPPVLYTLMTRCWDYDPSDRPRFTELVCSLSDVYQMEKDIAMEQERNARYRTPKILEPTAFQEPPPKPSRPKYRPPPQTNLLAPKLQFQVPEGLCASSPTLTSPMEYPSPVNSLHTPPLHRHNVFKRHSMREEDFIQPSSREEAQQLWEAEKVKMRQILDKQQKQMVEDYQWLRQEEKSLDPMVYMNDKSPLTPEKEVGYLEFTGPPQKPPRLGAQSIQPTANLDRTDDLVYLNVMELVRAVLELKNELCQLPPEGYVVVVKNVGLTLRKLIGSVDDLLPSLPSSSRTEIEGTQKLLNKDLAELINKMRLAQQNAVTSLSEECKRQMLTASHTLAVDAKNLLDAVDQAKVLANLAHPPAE
Chain of MYLK2 (human) (Q9H1R3 whole entry, looked up): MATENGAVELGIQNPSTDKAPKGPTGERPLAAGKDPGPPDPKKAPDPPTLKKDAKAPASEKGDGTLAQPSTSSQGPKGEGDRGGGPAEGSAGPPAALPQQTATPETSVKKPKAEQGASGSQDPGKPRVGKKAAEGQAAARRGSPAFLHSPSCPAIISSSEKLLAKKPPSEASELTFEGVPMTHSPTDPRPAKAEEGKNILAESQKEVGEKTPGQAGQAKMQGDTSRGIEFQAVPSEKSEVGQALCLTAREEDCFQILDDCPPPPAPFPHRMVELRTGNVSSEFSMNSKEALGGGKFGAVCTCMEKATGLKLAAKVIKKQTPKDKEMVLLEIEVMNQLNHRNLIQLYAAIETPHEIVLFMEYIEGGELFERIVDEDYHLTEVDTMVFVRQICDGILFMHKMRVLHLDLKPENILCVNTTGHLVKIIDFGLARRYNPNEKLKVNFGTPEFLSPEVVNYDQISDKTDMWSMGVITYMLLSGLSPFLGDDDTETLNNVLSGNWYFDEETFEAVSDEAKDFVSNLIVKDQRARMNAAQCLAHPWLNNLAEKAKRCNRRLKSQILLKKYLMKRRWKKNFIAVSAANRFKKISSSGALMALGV

Row | Compound | kinase still bound, per cent of control [1] | kinase still bound, per cent of control [2] | per cent of control [3] | kinase still bound, per cent of control [4] | kinase still bound, per cent of control [5] | kinase still bound, per cent of control [6] | kinase still bound, per cent of control [7] | kinase still bound, per cent of control [8] | kinase still bound, per cent of control [9] | kinase still bound, per cent of control [10] | kinase still bound, per cent of control [11] | kinase still bound, per cent of control [12] | kinase still bound, per cent of control [13] | kinase still bound, per cent of control [14] | kinase still bound, per cent of control [16] | kinase still bound, per cent of control [18] | kinase still bound, per cent of control [19] | kinase still bound, per cent of control [20] | kinase still bound, per cent of control [21] | kinase still bound, per cent of control [22] | also measured
1 | CCC(=O)N1CCN(c2ccc(-n3c(=O)ccc4cnc5ccc(-c6cnc7ccccc7c6)cc5c43)cc2C(F)(F)F)CC1 | 100% | 100% | 79% | 82% | 84% | 40% | 77% | 91% | 100% | 74% | 94% | 24% | 82% | 53% | 62% | 100% | 45% | 60% | 71% | 100% | kinase still bound, per cent of control [15]: 24%; kinase still bound, per cent of control [17]: 0%; kinase still bound, per cent of control [23]: 95%; kinase still bound, per cent of control [24]: 100%; kinase still bound, per cent of control [25]: 75%; kinase still bound, per cent of control [26]: 36%; kinase still bound, per cent of control [27]: 96%; kinase still bound, per cent of control [28]: 100%; per cent of control [29]: 4.6%; kinase still bound, per cent of control [30]: 100%; kinase still bound, per cent of control [31]: 100%; kinase still bound, per cent of control [32]: 100%; kinase still bound, per cent of control [33]: 44%; kinase still bound, per cent of control [34]: 1.8%; kinase still bound, per cent of control [35]: 65%; kinase still bound, per cent of control [36]: 99%; kinase still bound, per cent of control [37]: 86%; kinase still bound, per cent of control [38]: 85%; kinase still bound, per cent of control [39]: 94%
2 | CC(C)n1nc(-c2cc3cc(O)ccc3[nH]2)c2c(N)ncnc21 | 100% | 31% | 47% | 11% | 32% | 43% | 23% | 58% | 88% | 67% | 0.2% | 33% | 85% | 100% | 2.7% | 65% | 2.8% | 100% | 100% | 63% | kinase still bound, per cent of control [40]: 2.5%; kinase still bound, per cent of control [24]: 6.3%; kinase still bound, per cent of control [25]: 1.2%; kinase still bound, per cent of control [27]: 8.5%; kinase still bound, per cent of control [28]: 49%; per cent of control [29]: 43%; kinase still bound, per cent of control [30]: 100%; kinase still bound, per cent of control [31]: 86%; kinase still bound, per cent of control [32]: 55%; kinase still bound, per cent of control [33]: 19%; kinase still bound, per cent of control [34]: 52%; kinase still bound, per cent of control [35]: 74%; kinase still bound, per cent of control [36]: 2.6%; kinase still bound, per cent of control [41]: 11%; kinase still bound, per cent of control [37]: 47%; kinase still bound, per cent of control [39]: 63%
